For assay [1], the system named is PD-L1 aAPC/CHO-K1 cells and Jurkat-PD-1-NFAT effector cells. The experiment in a line: Nuclear factor of activated T-cells (NFAT) assay. The class given is cell-based. Particulars: Cricetulus griseus, CHO-K1; luminescence, 24 hours. In outline:
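PD-L1 aAPC/CHO-K1 cells (8000/well) co-cultured with Jurkat-PD-1-NFAT effector cells (10,000/well) plus compound in RPMI/1% FBS, 0.4% DMSO, top concentration 2 μM, 24 h at 37 °C. NFAT luciferase read by Bio-Glo luminescence. Fold induction normalized to DMSO; maximum induction relative to control compound; EC50 from curve fit.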

Assay [2] concerns the target PD-L1 (Homo sapiens (Human), UniProt Q9NZQ7). Nature of the assay: PD-L1 whole blood internalization assay. Particulars: PD-L1 internalization in human whole blood, CD14+ cells, interferon γ, 24 hour. The class given is cell-based.

Molecules are shown by their SMILES.

PD-L1, sequence (Q9NZQ7 19-290): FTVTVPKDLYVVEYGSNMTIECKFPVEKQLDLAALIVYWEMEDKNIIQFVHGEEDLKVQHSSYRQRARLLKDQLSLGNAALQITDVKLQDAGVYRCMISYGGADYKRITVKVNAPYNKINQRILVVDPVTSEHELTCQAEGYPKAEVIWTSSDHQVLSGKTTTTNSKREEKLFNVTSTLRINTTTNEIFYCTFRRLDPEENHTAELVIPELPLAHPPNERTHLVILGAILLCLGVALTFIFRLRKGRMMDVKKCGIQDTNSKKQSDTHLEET

Compound `Cc1c(Nc2nc(C(F)F)nc3cc(CN4CC[C@@H](O)C4)cnc23)cccc1-c1cccc(NC(=O)c2nc3c(n2C)CCN(CCC24CCC(C(=O)O)(CC2)C4)C3)c1Cl` [Example 1, (R)-4-(2-(2-((2-chloro-3′-((2-(difluoromethyl)-7-((3-hydroxypyrrolidin-1-yl)methyl)pyrido[3,2-d]pyrimidin-4-yl)amino)-2′-methyl-[1,1′-biphenyl]-3-yl)carbamoyl)-1-methyl-1,4,6,7-tetrahydro-5H-imidazo[4,5-c]pyridin-5-yl)ethyl)bicyclo[2.2.1]heptane-1-carboxylic Acid] showed a concentration giving a half-maximal response (EC50) in assay [1] of 2 nM. The compound also had an IC50 in assay [2] of 7.9 nM.

With `Cc1c(Nc2nc(C(F)F)nc3cc(CN4CC[C@@](C)(O)C4)cnc23)cccc1-c1cccc(NC(=O)c2nc3c(n2C)CCN(CCC24CCC(C(=O)O)(CC2)C4)C3)c1Cl` [Example 2, (R)-4-(2-(2-((2-chloro-3′-((2-(difluoromethyl)-7-((3-hydroxy-3-methylpyrrolidin-1-yl)methyl)pyrido[3,2-d]pyrimidin-4-yl)amino)-2′-methyl-[1,1′-biphenyl]-3-yl)carbamoyl)-1-methyl-1,4,6,7-tetrahydro-5H-imidazo[4,5-c]pyridin-5-yl)ethyl)bicyclo[2.2.1]heptane-1-carboxylic Acid], the midpoint of the response in assay [1], the EC50, lay at 4 nM. This compound also gave an IC50 in assay [2] of 8 nM.

Consider `Cc1c(NC(=O)c2nc3c(n2C)CCN(CCC24CCC(C(=O)O)(CC2)C4)C3)cccc1-c1cccc(Nc2nc(C(F)F)nc3cc(CN4CC[C@@H](O)C4)cnc23)c1C` [Example 5, (R)-4-(2-(2-((3′-((2-(difluoromethyl)-7-((3-hydroxypyrrolidin-1-yl)methyl)pyrido[3,2-d]pyrimidin-4-yl)amino)-2,2′-dimethyl-[1,1′-biphenyl]-3-yl)carbamoyl)-1-methyl-1,4,6,7-tetrahydro-5H-imidazo[4,5-c]pyridin-5-yl)ethyl)bicyclo[2.2.1]heptane-1-carboxylic Acid], for which, in assay [1], the EC50 is 9.2 nM. Moreover, in assay [2], the IC50 stood at 60 nM.

As a reminder, the EC50 is the concentration that produces a half-maximal response. Lower therefore signals higher potency in that assay. As a reminder, the IC50 is the point on the concentration scale where inhibition reaches its midpoint.

The record behind these values is patent publication US11401279B2, “Pyrido[3,2-d]pyrimidine compounds as immunomodulators” (Incyte Corporation, priority 2019, dated 2022).
